Reference: US20230019491A1, “PYRIMIDINE TBK/IKKe INHIBITOR COMPOUNDS AND USES THEREOF” (Merck Patent GmbH, priority 2017, published 2023)

How the values were obtained:
[1] = target: T1, TBK1 (Homo sapiens, UniProt Q9UHD2); assay: TBK biochemical assay; settings: 10 point 1:4 dose response, 30 uM top concentration, 90 min at 25° C., LabChip EZ Reader II; read-out: TBK1_IC50
T1 sequence (Q9UHD2 1-729): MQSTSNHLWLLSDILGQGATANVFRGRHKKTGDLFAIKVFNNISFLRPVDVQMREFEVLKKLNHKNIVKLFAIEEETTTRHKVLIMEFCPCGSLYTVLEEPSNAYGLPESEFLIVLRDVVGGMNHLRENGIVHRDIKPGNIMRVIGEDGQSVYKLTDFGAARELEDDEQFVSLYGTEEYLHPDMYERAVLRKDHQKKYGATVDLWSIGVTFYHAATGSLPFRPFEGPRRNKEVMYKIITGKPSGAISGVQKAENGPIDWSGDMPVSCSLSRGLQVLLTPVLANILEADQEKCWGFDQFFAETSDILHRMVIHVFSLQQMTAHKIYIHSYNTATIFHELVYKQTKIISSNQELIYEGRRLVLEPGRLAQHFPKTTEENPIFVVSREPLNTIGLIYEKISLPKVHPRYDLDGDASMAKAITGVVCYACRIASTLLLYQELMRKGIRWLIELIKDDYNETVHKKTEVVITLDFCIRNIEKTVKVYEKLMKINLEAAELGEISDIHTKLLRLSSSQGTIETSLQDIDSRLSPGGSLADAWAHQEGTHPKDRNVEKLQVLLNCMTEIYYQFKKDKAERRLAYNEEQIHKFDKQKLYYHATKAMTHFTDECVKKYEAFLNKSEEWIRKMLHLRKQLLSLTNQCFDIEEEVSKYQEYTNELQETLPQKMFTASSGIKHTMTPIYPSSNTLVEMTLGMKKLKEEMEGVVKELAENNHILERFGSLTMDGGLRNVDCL
Summary of the method: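 Read-out was a Caliper LabChip mobility-shift assay, run after a 90-min, 25 °C reaction of TBK1 with substrate and compounds, quenched with stop buffer. Control wells received staurosporine at 10 uM final.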

[2] = target: T2, IKKε (Homo sapiens, UniProt Q14164); assay: IKKε biochemical assay; settings: 10 point 1:4 dose response, 30 uM top concentration, 90 min at 25° C., LabChip EZ Reader II; read-out: IKKε_IC50
T2 sequence (Q14164 1-716): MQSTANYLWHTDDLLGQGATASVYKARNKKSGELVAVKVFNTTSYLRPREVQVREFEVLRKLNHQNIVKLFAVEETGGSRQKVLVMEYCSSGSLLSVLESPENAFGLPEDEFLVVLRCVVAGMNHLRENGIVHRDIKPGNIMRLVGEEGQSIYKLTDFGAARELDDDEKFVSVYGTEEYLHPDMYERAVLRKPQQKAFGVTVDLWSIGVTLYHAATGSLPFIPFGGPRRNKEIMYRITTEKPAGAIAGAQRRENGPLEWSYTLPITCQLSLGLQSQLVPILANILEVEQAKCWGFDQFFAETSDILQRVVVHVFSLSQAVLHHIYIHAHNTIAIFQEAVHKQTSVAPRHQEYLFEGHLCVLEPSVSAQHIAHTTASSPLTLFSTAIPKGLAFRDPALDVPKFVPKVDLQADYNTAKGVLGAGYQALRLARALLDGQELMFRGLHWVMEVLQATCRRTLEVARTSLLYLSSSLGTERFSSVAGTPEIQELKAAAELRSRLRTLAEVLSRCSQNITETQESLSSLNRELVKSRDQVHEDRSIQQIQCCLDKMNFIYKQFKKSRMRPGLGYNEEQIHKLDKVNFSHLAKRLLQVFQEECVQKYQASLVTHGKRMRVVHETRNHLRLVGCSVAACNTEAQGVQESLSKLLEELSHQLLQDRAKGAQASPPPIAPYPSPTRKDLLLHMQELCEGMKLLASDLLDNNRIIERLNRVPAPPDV
Summary of the method: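 Mobility-shift LabChip read-out followed a 90 min, 25° C. reaction of IKKε with substrate and test compound, with DMSO held at 1% final. Reactions were ended with stop buffer. Wells with 10 uM final staurosporine defined complete inhibition, and DMSO-only wells the uninhibited level.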

IC50 [1] | IC50 [2] | SMILES
< 100 nM | < 100 nM | Cc1nc(C(=O)N2CCC(Oc3ccc(-c4ccnc(Nc5ccc(N6CCN(C7COC7)CC6)cc5)n4)cc3C#N)CC2)c[nH]1 [Example 274, 2-[[1-(2-methyl-1H-imidazole-4-carbonyl)piperidin-4-yl]oxy]-5-[2-([4-[4-(oxetan-3-yl)piperazin-1-yl]phenyl]amino)pyrimidin-4-yl]benzonitrile]
< 100 nM | < 100 nM | COc1nc(Nc2nccc(-c3ccc(OC4CCN(C(=O)[C@H](C)O)CC4(F)F)c(C#N)c3)n2)ccc1N1CCOCC1 (stereo partly drawn) [Example 275, 2-([3,3-difluoro-1-[(2S)-2-hydroxypropanoyl]piperidin-4-yl]oxy)-5-(2-[[6-methoxy-5-(morpholin-4-yl)pyridin-2-yl]amino]pyrimidin-4-yl)benzonitrile]
< 100 nM | < 100 nM | N#Cc1cc(-c2ccnc(Nc3cccc(C4CCN(C5COC5)CC4)c3)n2)ccc1OC1CCN(C(=O)[C@@H](O)CO)CC1(F)F (stereo partly drawn) [Example 276, 2-[1-((S)-2,3-Dihydroxy-propionyl)-3,3-difluoro-piperidin-4-yloxy]-5-{2-[3-(l-oxetan-3-yl-piperidin-4-yl)-phenylamino]-pyrimidin-4-yl}-benzonitrile]
< 100 nM | < 100 nM | C[C@H](O)C(=O)N1CC(COc2ccc(-c3ccnc(Nc4ccc(N5CCN(C6COC6)CC5)cc4)n3)cc2C#N)C1 [Example 277, 2-([1-[(2S)-2-hydroxypropanoyl]azetidin-3-yl]methoxy)-5-[2-([4-[4-(oxetan-3-yl)piperazin-1-yl]phenyl]amino)pyrimidin-4-yl]benzonitrile]
100 to 1000 nM | 100 to 1000 nM | C[C@@H](O)C(=O)N1CC(COc2ccc(-c3ccnc(Nc4ccc(N5CCN(C6COC6)CC5)cc4)n3)cc2C#N)C1 [Example 278, 2-([1-[(2R)-2-hydroxypropanoyl]azetidin-3-yl]methoxy)-5-[2-([4-[4-(oxetan-3-yl)piperazin-1-yl]phenyl]amino)pyrimidin-4-yl]benzonitrile]
< 100 nM | 100 to 1000 nM | COc1nc(Nc2nccc(-c3ccc(OCC4CN(C(=O)[C@H](C)O)C4)c(C#N)c3)n2)ccc1N1CCN(C2COC2)CC1 [Example 279, 2-([1-[(2S)-2-hydroxypropanoyl]azetidin-3-yl]methoxy)-5-[2-([6-methoxy-5-[4-(oxetan-3-yl)piperazin-1-yl]pyridin-2-yl]amino)pyrimidin-4-yl]benzonitrile]
100 to 1000 nM | 100 to 1000 nM | COc1nc(Nc2nccc(-c3ccc(OCC4CN(C(=O)[C@@H](C)O)C4)c(C#N)c3)n2)ccc1N1CCN(C2COC2)CC1 [Example 280, 2-([1-[(2R)-2-hydroxypropanoyl]azetidin-3-yl]methoxy)-5-[2-([6-methoxy-5-[4-(oxetan-3-yl)piperazin-1-yl]pyridin-2-yl]amino)pyrimidin-4-yl]benzonitrile]
< 100 nM | < 100 nM | COc1nc(Nc2ncc(C)c(-c3ccc(OC4CCN(C(=O)[C@H](C)O)CC4(F)F)c(C#N)c3)n2)ccc1N1CCN(C2COC2)CC1 (stereo partly drawn) [Example 283, 2-([33-difluoro-1-[(2S)-2-hydroxypropanoyl]piperidin-4-yl]oxy)-5-[2-([6-methoxy-5-[4-(oxetan-3-yl)piperazin-1-yl]pyridin-2-yl]amino)-5-methylpyrimidin-4-yl]benzonitrile]
< 100 nM | < 100 nM | COc1nc(Nc2ncc(C)c(-c3ccc(O[C@H]4CCN(C(=O)[C@H](C)O)CC4(F)F)c(C#N)c3)n2)ccc1N1CCN(C2COC2)CC1 [Example 284, 2-[[(4S)-3,3-difluoro-1-[(2S)-2-hydroxypropanoyl]piperidin-4-yl]oxy]-5-[2-([6-methoxy-5-[4-(oxetan-3-yl)piperazin-1-yl]pyridin-2-yl]amino)-5-methylpyrimidin-4-yl]benzonitrile]
100 to 1000 nM | 100 to 1000 nM | COc1nc(Nc2ncc(C)c(-c3ccc(O[C@@H]4CCN(C(=O)[C@H](C)O)CC4(F)F)c(C#N)c3)n2)ccc1N1CCN(C2COC2)CC1 [Example 285, 2-[[(4R)-3,3-difluoro-1-[(2S)-2-hydroxypropanoyl]piperidin-4-yl]oxy]-5-[2-([6-methoxy-5-[4-(oxetan-3-yl)piperazin-1-yl]pyridin-2-yl]amino)-5-methylpyrimidin-4-yl]benzonitrile]
< 100 nM | 100 to 1000 nM | COc1nc(Nc2ncc(C)c(-c3ccc(OC4CCN(C(=O)[C@@H](C)O)CC4(F)F)c(C#N)c3)n2)ccc1N1CCN(C2COC2)CC1 (stereo partly drawn) [Example 286, 2-([33-difluoro-1-[(2R)-2-hydroxypropanoyl]piperidin-4-yl]oxy)-5-[2-([6-methoxy-5-[4-(oxetan-3-yl)piperazin-1-yl]pyridin-2-yl]amino)-5-methylpyrimidin-4-yl]benzonitrile]
< 100 nM | < 100 nM | COc1nc(Nc2ncc(F)c(-c3ccc(OC4CCN(C(=O)[C@H](C)O)CC4(F)F)c(C#N)c3)n2)ccc1N1CCN(C2COC2)CC1 (stereo partly drawn) [Example 287, 2-([3,3-difluoro-1-[(2S)-2-hydroxypropanoyl]piperidin-4-yl]oxy)-5-[5-fluoro-2-([6-methoxy-5-[4-(oxetan-3-yl)piperazin-1-yl]pyridin-2-yl]amino)pyrimidin-4-yl]benzonitrile]
< 100 nM | < 100 nM | COc1nc(Nc2ncc(F)c(-c3ccc(O[C@@H]4CCN(C(=O)[C@H](C)O)CC4(F)F)c(C#N)c3)n2)ccc1N1CCN(C2COC2)CC1 [Example 289, 2-[[(4R)-3,3-difluoro-1-[(2S)-2-hydroxypropanoyl]piperidin-4-yl]oxy]-5-[5-fluoro-2-([6-methoxy-5-[4-(oxetan-3-yl)piperazin-1-yl]pyridin-2-yl]amino)pyrimidin-4-yl]benzonitrile]
< 100 nM | < 100 nM | COc1nc(Nc2ncc(F)c(-c3ccc(OC4CCN(C(=O)CO)CC4(F)F)c(C#N)c3)n2)ccc1N1CCN(C2COC2)CC1 (stereo not shown) [Example 290, 2-{[3,3-difluoro-1-(2-hydroxyacetyl)piperidin-4-yl]oxy}-5-[5-fluoro-2-({6-methoxy-5-[4-(oxetan-3-yl)piperazin-1-yl]pyridin-2-yl}amino)pyrimidin-4-yl]benzonitrile]
< 100 nM | < 100 nM | COc1nc(Nc2ncc(F)c(-c3ccc(OC4CCN(C(=O)C(C)O)CC4(F)F)c(C#N)c3)n2)ccc1N1CCN(C2COC2)CC1 (stereo not shown) [Example 291, 2-{[33-difluoro-1-(2-hydroxypropanoyl)piperidin-4-yl]oxy}-5-[5-fluoro-2-({6-methoxy-5-[4-(oxetan-3-yl)piperazin-1-yl]pyridin-2-yl}amino)pyrimidin-4-yl]]
< 100 nM | < 100 nM | COc1nc(Nc2ncc(F)c(-c3ccc(OC4CCN(C(=O)[C@H](C)O)CC4(F)F)c(C#N)c3)n2)ccc1N1CCN(C2COC2)CC1 (stereo partly drawn) [Example 292, 2-({3,3-difluoro-1-[(2S)-2-hydroxypropanoyl]piperidin-4-yl}oxy)-5-[5-fluoro-2-({6-methoxy-5-[4-(oxetan-3-yl)piperazin-1-yl]pyridin-2-yl}amino)pyrimidin-4-yl]benzonitrile]

SMILES | IC50 [1] | IC50 [2]
COc1nc(Nc2ncc(F)c(-c3ccc(O[C@H]4CCN(C(=O)[C@H](C)O)CC4(F)F)c(C#N)c3)n2)ccc1N1CCN(C2COC2)CC1 [Example 288, 2-[[(4S)-33-difluoro-1-[(2S)-2-hydroxypropanoyl]piperidin-4-yl]oxy]-5-[5-fluoro-2-([6-methoxy-5-[4-(oxetan-3-yl)piperazin-1-yl]pyridin-2-yl]amino)pyrimidin-4-yl]benzonitrile] | < 100 nM | < 100 nM
